In patent publication US11872210B2, “Thiol isomerases inhibitors and use thereof” (WESTERN NEW ENGLAND UNIVERSITY, priority 2017, dated 2024):

Experiments:
[1] = system: integrin αIIbβ3 on washed platelets; experiment: Integrin activation (PAC-1 antibody binding) by flow cytometry; assay type: cell-based, human; settings: CRP-XL stimulated
Protocol: Human Platelet Preparation: 50 mL of blood was drawn from drug free, consenting individuals, into a syringe containing 5 mL sodium citrate (4% w/v) and 7.5 mL warmed ACD (85 mM sodium citrate, 71 mM citric acid and 110 mM glucose). Blood was centrifuged at 102 g for 20 minutes to obtain platelet-rich plasma (PRP), which was then decanted and 104 prostacyclin (PGI2 125 μg/mL, solubilized in ethanol) added. Platelets were pelleted by centrifugation at 1413 g for 10 minutes, platelet poor plasma was discarded and the pellet resuspended in 25 mL Tyrode's-HEPES buffer (134 mM NaCl, 2.9 mM KCl, 0.34 mM Na2HPO4, 12 mM NaHCO3, 20 mM HEPES, 1 mM MgCl2 and 5 mM glucose pH 7.3), 3 mL of ACD and 10 μL PGI2 were added and then following centrifugation at 1413 g for 10 minutes, the platelet pellet was re-suspended to the appropriate cell density using Tyrode's buffer. […]
Flow Cytometry: 5 μL platelets (2×10^8 cells/mL) was added to 42 μL HEPES-buffered saline with 1 mM Ca2+. […] Samples were then fixed with 450 μL of 0.2% (v/v) paraformaldehyde and analyzed on an accuri C6 flow cytometer (BD Biosciences, UK), with the threshold set to 20,000. Platelet populations were gated and 10,000 events recorded.
Washed platelets (2×10^8 cells/mL) were incubated with vehicle, zafirlukast (0.6-10 μM) or montelukast (0.6-10 μM) for 5 minutes. […] Data were analyzed using one-way ANOVA, n=3.

[2] = system: platelets (fibrinogen receptor αIIbβ3); experiment: Fibrinogen binding to αIIbβ3 by flow cytometry; assay type: cell-based, human
Protocol: (§1) Human Platelet Preparation: 50 mL of blood was drawn from drug free, consenting individuals, into a syringe containing 5 mL sodium citrate (4% w/v) and 7.5 mL warmed ACD (85 mM sodium citrate, 71 mM citric acid and 110 mM glucose). Blood was centrifuged at 102 g for 20 minutes to obtain platelet-rich plasma (PRP), which was then decanted and 104 prostacyclin (PGI2 125 μg/mL, solubilized in ethanol) added. Platelets were pelleted by centrifugation at 1413 g for 10 minutes, platelet poor plasma was discarded and the pellet resuspended in 25 mL Tyrode's-HEPES buffer (134 mM NaCl, 2.9 mM KCl, 0.34 mM Na2HPO4, 12 mM NaHCO3, 20 mM HEPES, 1 mM MgCl2 and 5 mM glucose pH 7.3), 3 mL of ACD and 10 μL PGI2 were added and then following centrifugation at 1413 g for 10 minutes, the platelet pellet was re-suspended to the appropriate cell density using Tyrode's buffer. Platelets were rested for 30 minutes at 30° C. to allow platelet responses to recover.
(§2) Flow Cytometry: 5 μL platelets (2×10^8 cells/mL) was added to 42 μL HEPES-buffered saline with 1 mM Ca2+. To this, 0.5 μL zafirlukast (0.6 μM-10 μM) or montelukast (0.6 μM-10 μM) or vehicle (0.1% (v/v) DMSO) was added and incubated for 5 minutes. 1 μL anti-human CD62p (1:500 dilution) and 1 μL anti-fibrinogen FITC conjugate (1:500 dilution) or 2 μL of anti-PAC-1 antibody were added to samples. Platelets were treated with 5 μL CRP-XL (1 ug/mL) or 5 μL Tyrode's for 20 minutes in the dark. Samples were then fixed with 450 μL of 0.2% (v/v) paraformaldehyde and analyzed on an accuri C6 flow cytometer (BD Biosciences, UK), with the threshold set to 20,000. Platelet populations were gated and 10,000 events recorded.

HCT116 cells = experiment: PrestoBlue cell proliferation assay, HCT116; assay type: cell-based, human; settings: HCT116, colon cancer, 24 hours treatment
Protocol: Cells were plated at 6,000 cells/well in a 96-well plate and treated with the indicated concentration of zafirlukast 24 hours later. Cells were allowed to grow for an additional 24 hours before alterations in growth were measured by the PrestoBlue cell proliferation assay in triplicate. Fluorescence readings with an excitation at 570 nm and emission of 600 nm were collected and treated samples were converted to a percentage of the untreated controls. OVCar8 (human ovarian cancer cell line), HCT116 (human colon cancer), HeLa (cervical cancer cell line) and MDA-MB-231 (breast cancer cell line) cell lines were examined for their ability to inhibit cell proliferation. […] Table 1 illustrates the results of a cell proliferation assay testing zafirlukast against OVCar8 cells, HCT116 cells, HeLa cells and MDA-MB-231 cells.

thrombus formation = experiment: Thrombus formation in mice after laser injury of cremaster muscle arterioles (intravital microscopy); assay type: in vivo, C57/BL6 mouse; settings: infused to circulating concentration of 20 μM, 5 minutes
Protocol: The effects of zafirlukast on thrombus formation in mice was determined following laser injury of cremaster muscle arterioles, and observed by intravital microscopy. Male C57/BL6 mouse platelets were labelled with DyLight 649-conjugated anti-GPIb antibody (0.2 μg/g body weight) and either vehicle or zafirlukast (ZFL) infused (at a volume required to achieve a circulating concentration of 20 μM). Following laser injury, images were recorded for 5 minutes. […] FIG. 6 illustrates the effects of ZFL on bleeding were determined by tail bleeding assay. Vehicle or ZFL (at a volume required to achieve a circulating concentration of 20 μM) were infused into the femoral veins of C57/BL6 mice, 5 minutes prior to tail biopsy. 0.5 cm of tail tip was excised and blood collected in phosphate-buffered saline (PBS), and time to cessation of bleeding was recorded. […] Graphs represent mean±SEM, n=10 per treatment, data analyzed by Student's T test, ***p<0.005.

human washed platelets = experiment: Collagen stimulated platelet aggregation; assay type: cell-based; settings: collagen 1 μg/mL, 3 minutes
Protocol: as §1
Platelet Aggregation: 445 μL of washed platelets at (4×10^8 cells/mL) were incubated for 5 minutes with vehicle (0.1% (v/v) DMSO) or 54 zafirlukast or montelukast. 50 μL of collagen 1 μg/mL (final), was added and light transmission monitored for 3 minutes at 37° C. with constant stirring (1200 rpm) using an aggregometer (Chronolog, USA).
Statistical analyses: All raw data was analyzed by 1-way ANOVA and where appropriate normalized to vehicle. GraphPad Prism was used to perform statistical analysis by ANOVA or students T test. The level of significance of p values is as follows, *p<0.05,**p<0.01, ***p<0.005. Data presented are mean+/−standard error of the mean.
Zafirlukast inhibits platelet aggregation: Human washed platelets (4×10^8 cells/mL) were pre-treated with 0.1 μM-10 μM zafirlukast or vehicle. Platelets were stimulated with collagen 1 μg/mL and allowed to aggregate for 3 minutes. Aggregation traces representative of the response were obtained and dose responses compared.

platelets = experiment: α-granule secretion of platelets; assay type: cell-based, human; settings: 0.1 μM-10 μM
Protocol: Platelet responses in the presence of zafirlukast, (0.1 μM-10 μM) were tested in a range of platelet functional assays including aggregation, granule secretion and spreading studies.
as §2

COc1cc(C(=O)NS(=O)(=O)c2ccccc2C)ccc1Cc1cn(C)c2ccc(NC(=O)OC3CCCC3)cc12 [zafirlukast, 4-(5-cyclopentyloxycarbonylamino-1-methylindol-3-ylmethyl)-3-methoxy-N-o-tolylsulfonylbenzamide]
cell-surface bound PAC-1 antibody (fluorescence) ([1]; 10 μM, vehicle 1623 Au): 748.5 Au | inhibition at 10 µM ([1]; Homo sapiens, Platelet, PAC-1 binding): 54% | fibrinogen binding (fluorescence) ([2]; 10 μM, CRP-XL stimulated, vehicle 12520 Au): 3696 Au | inhibition at 10 µM ([2]; Homo sapiens, Platelet, 10 μM, CRP-XL stimulated): 64.5% | fibrinogen binding (in words) ([2]; lower concentrations (below 10 μM)): trend towards inhibition | IC50 (HCT116 cells): 5 µM | IC50 (HCT116 cells; Homo sapiens, HCT-116, 24 h): 5 to 10 µM | thrombus size (maximum fluorescence intensity), in words (thrombus formation): reduction in thrombus size | inhibition of platelet aggregation (in words) (human washed platelets; 0.1 μM): did not significantly inhibit | inhibition of platelet aggregation (in words) (human washed platelets; 0.3 μM): did not significantly inhibit | platelet aggregation, normalized to vehicle (human washed platelets; 0.6 μM): 54.8% | platelet aggregation, normalized to vehicle (human washed platelets; 1.25 μM): 54.9% | platelet aggregation, normalized to vehicle (human washed platelets; 2.5 μM): 40.00% | platelet aggregation, normalized to vehicle (human washed platelets; 5 μM): 22.47% | platelet aggregation, normalized to vehicle (human washed platelets; 10 μM): 18.1% | inhibition at 0.6 µM (human washed platelets; Homo sapiens, Platelet, 0.05 h, 0.6 μM): 45% | inhibition at 1.25 µM (human washed platelets; Homo sapiens, Platelet, 0.05 h, 1.25 μM): 45% | inhibition at 2.5 µM (human washed platelets; Homo sapiens, Platelet, 0.05 h, 2.5 μM): 60% | inhibition at 5 µM (human washed platelets; Homo sapiens, Platelet, 0.05 h, 5 μM): 77.5% | inhibition at 10 µM (human washed platelets; Homo sapiens, Platelet, 0.05 h, 10 μM): 81.9% | α-granule secretion (in words) (platelets): inhibit
